Experimental data from paper PMC5398486, “Cheminformatics-aided discovery of small-molecule Protein-Protein Interaction (PPI) dual inhibitors of Tumor Necrosis Factor (TNF) and Receptor Activator of NF-κB Ligand (RANKL)” (PLoS Computational Biology, 2017).
Converted amounts (≈) assume the structure as drawn. Where two headings read alike, the source gives them in different places.

Legend:
[1] = Measurement of cytotoxicity in L929 cells (crystal violet); format: cell-based; settings: mouse, compound alone, read-out: L929 LC50
Experimental: L929 cells were seeded onto a 96-well plate (3x10^4 cells/well). After 24 h, cells were treated with the compounds at increasing concentrations. DMSO was used in the untreated control. The next day, a PBS-washing step was performed to remove dead cells. The remaining live cells were next fixed with methanol and stained with crystal violet. After solubilization with acetic acid, staining was quantified spectrophotometrically at 570 nm. Survival is expressed with respect to the untreated control. Experiments were performed in triplicate.

[2] = target: T1, TNF (Homo sapiens, UniProt P01375); test: Fluorescence-based binding affinity assay, TNF; parameters: made in house; settings: for 'n' value from Scatchard plot (ligand binding sites per protein molecule): TNF, binding assay raw data
T1 sequence (P01375 77-233 limits assumed): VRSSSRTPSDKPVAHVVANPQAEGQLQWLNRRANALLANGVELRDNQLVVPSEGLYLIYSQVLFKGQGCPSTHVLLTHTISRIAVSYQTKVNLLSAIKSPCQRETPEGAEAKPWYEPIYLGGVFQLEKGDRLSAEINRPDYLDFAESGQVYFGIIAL
Experimental: (§1) For use in the binding assays, recombinant TNF and RANKL were expressed and purified as previously described.[84–86] Fluorescence intensity was measure with a Synergy H1 Multi-Mode Reader (BioTek) in 96-well microplates (black) at 25°C. […] During preparation of the solutions the buffer was firstly added to all wells followed by the ligand solution and finally the protein was added. All solutions were mixed by pipetting and equilibrated for 1h at 25°C before measurement. […] Experiments were performed for TNF in 10 mM citrate-phosphate (pH 6.5) and for RANKL in 25 mM Tris–HCl buffer, 100 mM NaCl (pH 7.5); both buffers were supplemented with PEG3350 at the concentrations indicated in the respective figures. Kd values were calculated as mean ± SEM from three independent experiments.
(§2) Differences in fluorescence intensity between the protein/ligand complex and free protein (or free ligand) were analysed as previously described in [Papaneophytou et al. (2013) ACS Med Chem Lett. 4: 137-141] (Eq. S6) in order to determine the dissociation constant (Kd) of the various protein-ligand systems.
(§3) In Eq. (S6) Fobs is the observed fluorescence intensity; FBG is the fluorescence background signal; MFLF [picture] and PF are the molar fluorescence and concentration of free protein, respectively; FR is the fluorescence ratio of bound protein (or bound ligand in the case of a fluorescence ligand); LT and PT are the total concentrations of ligand and protein, respectively. A detailed analysis of the development of the fluorescence ligand-binding assay is given in [Papaneophytou et al. (2013) ACS Med Chem Lett. 4: 137-141].

[3] = target: T1, TNF; test: TNF-induced death assay in L929 cells; format: cell-based; parameters: purchased PeproTech; settings: 0.25 ng/mL human TNF + 2 μg/mL actinomycin D, approx. 24 h, read-out: L929 IC50 (inhibition of TNF-induced death)
Experimental: L929 cells were cultured on 96-well plates (3×10^4 cells/well) overnight. Then, 0.25 ng/mL human TNF (PeproTech) and 2 μg/mL actinomycin D (Sigma–Aldrich) were added. TNF with the compounds were pre-incubated for 30 min at room temperature before adding them to cells to assess inhibition. Background death was estimated using an actinomycin D treated-only control. After approximately 24 h, dead cells were cleared away by washing with PBS. The remaining live cells were then fixed with methanol and stained with crystal violet. After solubilization with acetic acid, staining was quantified spectrophotometrically at 570 nm. Cytotoxicity is expressed with respect to the background death control and also relative to the toxicity of compounds. Experiments were repeated three times.
Biological screening of the compounds examined their capacity to block TNF function in a modified TNF bioactivity assay.[91] The basis of this test is the death-inducing function of TNF in the murine fibrosarcoma cell line L929 following sensitization by the transcription inhibitor actinomycin D. Functional potency of the compounds would translate in a significant reduction of TNF-induced death. Using this approach, out of the nine shortlisted small molecules, two compounds (T8 and T23) were selected as follows. […]

[4] = target: T2, human RANKL (Homo sapiens, UniProt O14788); test: Cross-linking experiments, RANKL trimer formation; format: biochemical; settings: molar ratio of 1:1 relative to RANKL, BS3 cross-linking
T2 construct: purchased Peprotech
T2 sequence (O14788 143-317 limits assumed): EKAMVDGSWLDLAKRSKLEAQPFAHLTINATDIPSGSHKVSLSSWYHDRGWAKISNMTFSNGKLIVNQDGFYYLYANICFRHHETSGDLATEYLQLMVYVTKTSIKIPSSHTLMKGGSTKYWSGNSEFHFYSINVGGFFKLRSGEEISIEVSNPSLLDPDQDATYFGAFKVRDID
Experimental: (§4) 100 ng of recombinant human TNF or RANKL (Peprotech) were incubated with the inhibitors for 30 min at room temperature and then subjected to cross-linking, using 4.8 mM BS3 (ThermoFisher Scientific) for 30 min at room temperature. The reaction was stopped by adding 1/10th volume of 1 M Tris-HCl, pH 7.5. Samples were then subjected to SDS-PAGE and western blotting using an anti human-TNF or RANKL antibody (both R&D Systems).
(§5) Human TNF or RANKL was incubated with T8 or T23, chemically cross-linked, and subjected to SDS-PAGE. This was followed by western blotting to detect the various TNF and RANKL multimers. Both inhibitors were used at a molar ratio of 4:1 relative to TNF and 1:1 relative to RANKL. Numbers indicate molecular weights in kDa; NC = non cross-linked control (no inhibitor, no cross-linking); CC = cross-linked control (no inhibitor).

[5] = target: T1, TNF; test: Cross-linking experiments, TNF trimer formation; format: biochemical; parameters: purchased PeproTech; settings: molar ratio of 4:1 relative to TNF, BS3 cross-linking
Experimental: as §4, §5

[6] = Solubility with PEG3350 as co-solvent; format: physicochemical
Description: PEG3350 was used as co-solvent in order to enhance inhibitors solubility and thus eliminate the possibility of aggregates formation. | column: Solubility (μM)

[7] = target: T3, RANKL (Homo sapiens, UniProt O14788); test: Fluorescence-based binding affinity assay, RANKL; settings: for 'n' value from Scatchard plot (ligand binding sites per protein molecule): RANKL, binding assay raw data
T3 sequence (O14788 143-317): T2 sequence (O14788 143-317 limits assumed)
Experimental: as §1, §2, §3

[8] = TNF 0.75 μM, PEG3350 2.5%, 10 mM Citrate-phosphate buffer pH 6.5, read-out: Binding affinity (Kd), TNF
[9] = TNF 0.75 μM, PEG3350 5%, 10 mM Citrate-phosphate buffer pH 6.5, read-out: Binding affinity (Kd), TNF
[10] = TNF 1.5 μM, PEG3350 5%, 10 mM Citrate-phosphate buffer pH 6.5, read-out: Binding affinity (Kd), TNF
[11] = TNF 2.5 μM, PEG3350 5%, 10 mM Citrate-phosphate buffer pH 6.5, read-out: Binding affinity (Kd), TNF
[12] = fluorescence assay, 25°C, citrate-phosphate buffer, 5% PEG3350, read-out: Kd (TNF complexes)
[13] = 2.5% v/v PEG3350 as co-solvent, PEG3350 2.5% v/v
[14] = 5% v/v PEG3350 as co-solvent, aqueous with cosolvent or surfactant or cyclodextrin, PEG3350 5% v/v
[15] = RANKL 0.5 μM, PEG3350 2.5%, 25 mM Tri-HCl, 100 mM NaCl pH 7.5, read-out: Binding affinity (Kd), RANKL
[16] = RANKL 0.5 μM, PEG3350 5%, 25 mM Tri-HCl, 100 mM NaCl pH 7.5, read-out: Binding affinity (Kd), RANKL
[17] = RANKL 1.5 μM, PEG3350 5%, 25 mM Tri-HCl, 100 mM NaCl pH 7.5, read-out: Binding affinity (Kd), RANKL
[18] = RANKL 2.5 μM, PEG3350 5%, 25 mM Tri-HCl, 100 mM NaCl pH 7.5, read-out: Binding affinity (Kd), RANKL
[19] = fluorescence assay, 25°C, 25 mM Tris-HCl, 100 mM NaCl, pH 7.5, 5% PEG3350, read-out: Kd (RANKL complexes)

Structure (SMILES) | CC50 at 1 day [1] [µM] | Kd [2, 8] [µM] | Kd [2, 9] [µM] | Kd [2, 10] [µM] | Kd [2, 11] [µM] | 'n' value from Scatchard plot (ligand binding sites per protein molecule) [2] | Kd [2, 12] [µM] | IC50 [3] [µM] | formation of RANKL trimers (cross-linking, western blot) [4] | formation of TNF trimers (cross-linking, western blot) [5] | solubility [6, 13] [µM] | solubility [6, 14] [µM] | solubility ([6]; PEG3350 0% v/v) [µM] | Kd [7, 15] [µM] | Kd [7, 16] [µM] | Kd [7, 17] [µM] | Kd [7, 18] [µM] | 'n' value from Scatchard plot (ligand binding sites per protein molecule) [7] | Kd [7, 19] [µM] | other results
O=C(NNC(=NS(=O)(=O)c1ccc(-n2nc(C(F)(F)F)cc2-c2cccs2)cc1)N1CCCC1)c1ccc(Cl)cc1 [Compound T8, N-[(4-chlorobenzoyl)amino]-N'-[4-[5-thiophen-2-yl-3-(trifluoromethyl)pyrazol-1-yl]phenyl]sulfonylpyrrolidine-1-carboximidamide] | > 100 | 9.55 ± 0.81 | 8.78 ± 0.76 | 9.02 ± 0.88 | 9.17 ± 0.88 | 1 | 8.8 ± 0.8 | 40 ± 2.3 | obstruct the formation of active TNF and RANKL trimers | obstruct the formation of active TNF and RANKL trimers | 32 (≈ 19.9 µg/mL) | 48 (≈ 29.9 µg/mL) | < 1 | 6.15 ± 0.22 | 6.32 ± 0.62 | 6.55 ± 0.84 | 6.05 ± 0.37 | 1 | 6.3 ± 0.6 | –
COc1cc(OC(C)=O)c(-c2cc(OC(C)=O)c(OC)cc2OC(C)=O)cc1OC(C)=O [Compound T23, [4-acetyloxy-2-(2,5-diacetyloxy-4-methoxyphenyl)-5-methoxyphenyl] acetate] | > 100 | 3.02 ± 0.31 | 2.8 ± 0.19 | 2.63 ± 0.25 | 2.98 ± 0.47 | 1 | 2.8 ± 0.2 | 17 ± 1.2 | obstruct the formation of active TNF and RANKL trimers | obstruct the formation of active TNF and RANKL trimers | 88 | 117 | 36 | 7.44 ± 0.52 | 7.25 ± 0.44 | 7.62 ± 0.84 | 7.02 ± 0.33 | 1 | 7.3 ± 0.4 | Kd ([2]; TNF 0.75 μM, PEG3350 0%, 10 mM Citrate-phosphate buffer pH 6.5, read-out: Binding affinity (Kd), TNF): 2.53 ± 0.23 µM; Kd ([7]; RANKL 0.5 μM, PEG3350 0%, 25 mM Tri-HCl, 100 mM NaCl pH 7.5, read-out: Binding affinity (Kd), RANKL): 7.02 ± 0.63 µM
